Series [1] deals with upcyte hepatocytes 653-03 2D6. As to the kind of experiment: Tam metabolism in upcyte hepatocytes 653-03 2D6, metabolites in culture medium. It is filed as in vitro ADME, human. The note with it: cells incubated with 1 µM Tam up to 144 h. The procedure:
The medium was replaced every 2–3 days. […].
The culture medium was collected after 24, 48, 72, 96 and 144 h followed by metabolite measurements using HPLC-ESI-MS/MS.
Protein was precipitated by the addition of ACN containing 1% of acetic acid and the corresponding deuterated internal standards to the same volume of the sample followed by centrifugation at 20.000 g for 15 min at RT. […] Analytes were separated on a Zorbax Eclipse Plus C18 column (1.8 µm, 100 × 2.1 mm, Agilent technologies) and detected on a 6460 triple quadrupole mass spectrometer (Agilent technologies) in positive ESI MRM mode. Glucuronides of estrogen-like metabolites were detected separately via MS/MS-measurements in negative ESI MRM mode.
(§1) […]. […] […].

A further series deals with CYP3A4. As to the kind of experiment: CYP3A4 activity in upcyte hepatocytes after treatment (probe substrate cocktail). The following applies: 5 µM, 72 h, parental and derived cell line. The procedure:
(§2) Cells were cultivated in hepatocyte culture medium at 37 °C and 5 °% CO2 in a humidified incubator. Before starting experiments, cells were cultivated in hepatocyte culture medium containing 0.5% (v/v) DMSO (Preculture medium) for 5 days (density of 0.8 × 10^4 cells/cm^2) and were subcultivated in high-performance medium containing 0.1% (v/v) DMSO (Metabolism conditioning medium) for 3–5 days (density of 1.6 × 10^5 cells/cm^2, confluence). The medium was replaced every 2–3 days.
(§3) In HLM and supersome™ incubations the formation rate is given as nmol µg^−1 min^−1 and fmol pmol^−1 min^−1, respectively, and was calculated as the mean ± SD. […] The intrinsic Clearance (Clint) was given as Vmax/Km ratio. […] Activity of CYP enzymes in induction assays is given as the fold-change (mean ± SD) compared to the corresponding DMSO-treated control. […] Gene expression patterns of treated cells are given as fold-change compared to the corresponding DMSO-treated control samples, as described above. […] In induction and inhibition experiments corresponding EC50 and IC50 values were calculated by nonlinear regression. In all experiments a level of probability (p) ≤ 0.05 for statistical testing was considered significant.
(§4) As control 0.05 % DMSO was used. The basal CYP activity and induction of CYP activity compared to the DMSO control were measured via HPLC-ESI-MS/MS.

Series [2] has as its target T1, CYP2C8 (Homo sapiens, UniProt P10632).
T1 sequence (P10632 1-490): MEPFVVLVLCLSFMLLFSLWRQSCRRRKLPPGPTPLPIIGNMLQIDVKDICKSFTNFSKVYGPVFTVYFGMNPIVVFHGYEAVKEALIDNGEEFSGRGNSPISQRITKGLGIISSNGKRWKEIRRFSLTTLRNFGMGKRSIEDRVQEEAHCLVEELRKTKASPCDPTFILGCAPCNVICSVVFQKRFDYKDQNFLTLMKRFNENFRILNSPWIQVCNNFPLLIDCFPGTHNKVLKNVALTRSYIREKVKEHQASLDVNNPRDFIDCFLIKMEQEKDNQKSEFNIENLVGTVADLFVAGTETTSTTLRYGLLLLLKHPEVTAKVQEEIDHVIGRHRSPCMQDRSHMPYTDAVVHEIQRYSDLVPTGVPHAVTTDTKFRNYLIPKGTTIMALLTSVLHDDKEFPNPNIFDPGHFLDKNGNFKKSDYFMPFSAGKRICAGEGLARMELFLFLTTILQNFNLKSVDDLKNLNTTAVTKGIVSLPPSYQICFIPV
Description: Inhibition of CYP2C8 activity in HLM. Format: in vitro ADME. The following applies: 200 nM to 10 µM, 10 min pre-incubation.

For another series, the target named is CYP2C9 (Homo sapiens, UniProt P11712). As to the kind of experiment: Inhibition of CYP2C9 activity in HLM. It is filed as in vitro ADME. The following applies: human, human liver microsomes, 200 nM to 10 µM, 10 min pre-incubation.
The next series addresses CYP2C19 (Homo sapiens, UniProt P33261). As to the kind of experiment: Inhibition of CYP2C19 activity in HLM. It is filed as in vitro ADME. The following applies: human, human liver microsomes, 200 nM to 10 µM, 10 min pre-incubation. For orientation: Liver microsomes are a subcellular fraction often used to study metabolism.
For another series, the system named is CYP3A4 gene expression. Description: CYP3A4 gene expression in upcyte hepatocytes (Fluidigm RT-PCR). The following applies: 5 µM, 72 h, both cell strains.
Source text: (§5) Total RNA was isolated from cells using the Direct-zol™ RNA MiniPrep kit (Zymo Research Corp., Irvine, California). cDNA was synthesized using TaqMan Reverse Transcription Reagents (Life technologies, Applera GmbH, Darmstadt, Germany) and the expression of 25 genes representative of phase I and phase II drug metabolism and transport was quantified by Fluidigm’s BioMark HD high-throughput quantitative chip platform (Fluidigm Corporation, San Francisco, USA). For relative gene expression analysis, the delta-delta-Ct (ΔΔCt) method was used: the Ct values of the target mRNA were first normalized to those of the endogenous control glyceraldehyde-3-phosphate dehydrogenase (GAPDH) followed by dividing values of experimental samples by their corresponding DMSO-treated controls to calculate the x-fold changes of mRNA expression.
as §3, §4

Another series concerns CYP2A6 gene expression. As to the kind of experiment: CYP2A6 gene expression in upcyte hepatocytes (Fluidigm RT-PCR). The following applies: 5 µM, 72 h, both cell strains. Format: cell-based, human. From the text:
(§6) Differences between induced and control samples were compared using Welch’s t-test (GraphPad Prism, version 5.04), when the fold-change was considered biologically relevant (1.5-fold increase or decrease in fold-changes) and corrected for multiple testing according to Bonferroni. […] An unpaired t-test assuming unequal variances was used for testing of differences in the expression patterns, when the fold-change was considered biologically relevant (1.5-fold increase or decrease in fold-changes) and corrected using Bonferroni adjustments.

For another series, the system named is SLC10A1 gene expression. Description: SLC10A1 gene expression in upcyte hepatocytes (Fluidigm RT-PCR). Format: cell-based, human. The following applies: 5 µM, 72 h, both cell strains.
Source text: as §6

The target of series [3] is T1, CYP2C8. Description: CYP2C8 activity in upcyte hepatocytes after treatment (probe substrate cocktail). It is filed as cell-based. Also on record: host or cells: upcyte hepatocytes 653-03 and 653-03 #138 (653-03 2D6). The note with it: human, upcyte hepatocytes 653-03 and 653-03 2D6, probe amodiaquine 5 µM, 5 µM, both cell lines. The procedure: as §2, §3, §4
The test system of a further series is GSTA2 gene expression. As to the kind of experiment: GSTA2 gene expression in upcyte hepatocytes (Fluidigm RT-PCR). Format: cell-based, human. The note with it: rifampicin 30 µM, 72 h.
Source text: as §1
[…]. As control 0.05 % DMSO was used.

The test system of a further series is ABCB1 gene expression. As to the kind of experiment: ABCB1 gene expression in upcyte hepatocytes (Fluidigm RT-PCR). Format: cell-based, human. The following applies: rifampicin 30 µM, 72 h.
Source text: as §5
In HLM and supersome™ incubations the formation rate is given as nmol µg^−1 min^−1 and fmol pmol^−1 min^−1, respectively, and was calculated as the mean ± SD. […] The intrinsic Clearance (Clint) was given as Vmax/Km ratio. […] In induction and inhibition experiments corresponding EC50 and IC50 values were calculated by nonlinear regression. […]
as §4

As usually defined, the IC50 is the point on the concentration scale where inhibition reaches its midpoint. Read a low IC50 as inhibition by little substance. The inhibition is the relative decrease from the control value, in per cent.

Chain of CYP2C19 (P33261 whole entry): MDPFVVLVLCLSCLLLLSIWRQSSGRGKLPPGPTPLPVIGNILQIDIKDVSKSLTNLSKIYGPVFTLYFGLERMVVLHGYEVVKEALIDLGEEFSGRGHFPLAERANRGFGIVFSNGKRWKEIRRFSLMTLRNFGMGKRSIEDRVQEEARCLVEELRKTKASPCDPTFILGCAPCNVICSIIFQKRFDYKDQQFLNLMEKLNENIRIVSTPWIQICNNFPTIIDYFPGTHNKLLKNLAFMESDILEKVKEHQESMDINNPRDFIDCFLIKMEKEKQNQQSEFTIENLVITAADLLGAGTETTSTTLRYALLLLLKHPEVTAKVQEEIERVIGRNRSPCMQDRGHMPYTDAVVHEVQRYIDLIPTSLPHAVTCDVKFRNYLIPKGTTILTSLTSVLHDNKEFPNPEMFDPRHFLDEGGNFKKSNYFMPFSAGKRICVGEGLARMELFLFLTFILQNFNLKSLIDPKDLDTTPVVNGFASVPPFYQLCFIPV
Chain of CYP2C9 (P11712 whole entry): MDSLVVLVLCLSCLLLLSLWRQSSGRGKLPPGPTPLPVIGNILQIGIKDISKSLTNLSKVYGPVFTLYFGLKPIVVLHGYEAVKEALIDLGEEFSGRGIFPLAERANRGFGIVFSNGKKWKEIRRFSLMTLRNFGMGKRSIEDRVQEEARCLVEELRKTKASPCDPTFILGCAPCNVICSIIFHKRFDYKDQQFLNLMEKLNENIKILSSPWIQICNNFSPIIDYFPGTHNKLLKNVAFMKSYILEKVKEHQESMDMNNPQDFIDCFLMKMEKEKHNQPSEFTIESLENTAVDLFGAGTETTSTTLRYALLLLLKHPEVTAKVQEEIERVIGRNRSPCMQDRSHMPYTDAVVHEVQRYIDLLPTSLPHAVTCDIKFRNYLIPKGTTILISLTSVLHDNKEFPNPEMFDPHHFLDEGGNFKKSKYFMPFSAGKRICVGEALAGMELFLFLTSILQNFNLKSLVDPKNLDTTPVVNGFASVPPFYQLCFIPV

For the compound `CC/C(=C(\c1ccc(O)cc1)c1ccc(OCCN(C)C)cc1)c1ccccc1` [4OH-Tam, (Z)-4-Hydroxytamoxifen], the “concentration in the supernatant of 653-03 2D6 cells relative to parental cells” value in series [1] is “up to 20 times”. Further, the “induction of CYP3A4 activity compared to DMSO control” value with CYP3A4 is given as “up to 2.1 fold”. At CYP2C8 [2], the concentration for half-maximal inhibition (IC50) was greater than 10 µM and the “IC50 of CYP2C8 activity” value is recorded as “only minor inhibition”. The same compound came in with an IC50 at 15 min against CYP2C9 greater than 10 µM. Moreover, the IC50 at 15 min on CYP2C19 is greater than 10 µM. Further, the “CYP3A4 gene expression, induction vs DMSO control” value in the series with CYP3A4 gene expression is “up to 5.6 fold”. In addition, in the series on CYP2A6 gene expression, the “CYP2A6 gene expression, downregulation” value is given as “up to twofold”. Besides, the “SLC10A1 gene expression, downregulation (fold lower)” value in the series with SLC10A1 gene expression is on record as “up to twofold”. Also, the inhibition at 72 h, 5 µM at CYP2C8 [3] is no more than 90%.
On to `CO[C@H]1/C=C/O[C@@]2(C)Oc3c(C)c(O)c4c(O)c(c(/C=N/N5CCN(C)CC5)c(O)c4c3C2=O)NC(=O)/C(C)=C\C=C\[C@H](C)[C@H](O)[C@@H](C)[C@@H](O)[C@@H](C)[C@H](OC(C)=O)[C@@H]1C` [Rifa, rifampicin], for which the “GSTA2 gene expression, induction” value with GSTA2 gene expression stood at 2.6 fold. Besides, in the series on ABCB1 gene expression, the “ABCB1 gene expression, induction” value came to 1.7 fold.

Values taken from PMC5866846 (Archives of Toxicology, 2017).
